Reference: PMC3585750, “Modulation of TRP channels by resveratrol and other stilbenoids” (Molecular Pain, 2013)

Key:
TRPA1 (mTRPA1) [1] = target: T1, TRPA1 (mTRPA1) (Mus musculus, UniProt Q8BLA8); test: whole-cell patch clamp, agonist concentration-response in transfected HEK293 cells; no current in untransfected cells; assay type: cell-based
TRPA1 (mTRPA1) [2] = target: T1, TRPA1 (mTRPA1); test: whole-cell patch clamp, inhibition of AITC-induced current in transfected HEK293 cells; assay type: cell-based

T1 sequence (Q8BLA8 whole entry): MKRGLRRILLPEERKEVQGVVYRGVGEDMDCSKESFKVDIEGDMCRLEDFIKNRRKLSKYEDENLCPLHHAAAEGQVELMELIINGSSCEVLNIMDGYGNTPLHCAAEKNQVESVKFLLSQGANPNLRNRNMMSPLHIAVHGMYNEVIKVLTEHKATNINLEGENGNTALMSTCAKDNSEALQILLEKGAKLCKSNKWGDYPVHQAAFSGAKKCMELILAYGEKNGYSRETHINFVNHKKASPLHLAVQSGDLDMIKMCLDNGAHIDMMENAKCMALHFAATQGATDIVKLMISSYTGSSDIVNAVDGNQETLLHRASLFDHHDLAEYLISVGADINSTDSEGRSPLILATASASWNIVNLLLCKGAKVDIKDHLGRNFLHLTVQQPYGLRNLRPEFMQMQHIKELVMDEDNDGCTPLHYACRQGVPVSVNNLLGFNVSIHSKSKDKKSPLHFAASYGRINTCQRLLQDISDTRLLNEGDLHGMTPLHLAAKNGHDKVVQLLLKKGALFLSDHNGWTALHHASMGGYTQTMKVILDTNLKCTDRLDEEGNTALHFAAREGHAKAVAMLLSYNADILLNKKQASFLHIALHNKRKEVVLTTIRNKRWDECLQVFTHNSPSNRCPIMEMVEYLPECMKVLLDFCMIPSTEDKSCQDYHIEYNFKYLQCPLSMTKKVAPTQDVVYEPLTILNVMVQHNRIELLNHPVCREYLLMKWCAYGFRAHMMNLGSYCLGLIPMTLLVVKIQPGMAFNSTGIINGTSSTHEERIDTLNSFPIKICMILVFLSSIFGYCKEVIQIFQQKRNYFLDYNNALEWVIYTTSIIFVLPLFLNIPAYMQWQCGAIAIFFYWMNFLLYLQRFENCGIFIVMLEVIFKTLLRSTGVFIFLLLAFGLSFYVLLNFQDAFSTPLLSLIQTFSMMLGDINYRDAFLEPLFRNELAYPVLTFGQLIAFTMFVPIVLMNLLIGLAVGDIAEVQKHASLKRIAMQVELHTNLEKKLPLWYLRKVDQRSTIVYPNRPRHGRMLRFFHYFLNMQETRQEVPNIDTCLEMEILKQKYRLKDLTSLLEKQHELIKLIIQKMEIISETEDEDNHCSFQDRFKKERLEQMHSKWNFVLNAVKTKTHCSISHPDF

SMILES | EC50 (TRPA1 (mTRPA1) [1]) | IC50 (TRPA1 (mTRPA1) [2])
C=CCN=C=S [AITC, allyl isothiocyanate] | 61.2 µM | 
Oc1ccc(/C=C/c2cc(O)cc(O)c2)cc1 [RES, 3,5,4’ - trihydroxy-trans-stilbene] |  | ~0.75 µM
